In patent US10849901B2, “Arf6 inhibitors and methods of synthesis and use thereof” (Navigen, Inc., priority 2014, dated 2020) one finds IC50 and inhibition data, which are given here for 57 compounds.

Where two headings read alike, the source gives them in different places.

This assay has as its target Arf6 (Homo sapiens (Human), UniProt P62330). The assay is described as follows: Fluorometric assay for Arf6 nucleotide exchange catalyzed by ARNO Sec7 domain (GTP-BODIPY FL). The format is biochemical. How it is done: FIGS. 1A-1D: Fluorometric high throughput assay for Arf6 nucleotide exchange catalyzed by ARNO Sec7 domain. FIG. 1A: Principle of the assay. FIG. 1B: SDS-PAGE analysis of N-terminally His-tagged Arf6(14-175) and ARNO(50-255) purified from the E. coli cultures by immobilized metal affinity chromatography. FIG. 1C: Correlation between signal intensity and ARNO concentration. The assay was performed using 50 mM Tris-HCl, pH 7.5, 1 mM MgCl2, 0.01% TX-100, 1% DMSO, 50 nM GTP-BODIPY FL, supplemented with ARNO-Sec7 at indicated concentrations in the absence or in the presence of 0.2 μM Arf6-GDP. Fluorescence intensities were monitored using a Synergy 4 plate reader (BioTek) at the excitation and emission wavelengths of 490 nm and 520 nm, respectively. FIG. 1D: Time course of apparent inhibitory potency of GDP. The assay was performed in automated mode using a Matrix PlateMate liquid handler.
The primary biochemical assay uses a fluorometric assay for monitoring the replacement of bound nucleotide with a fluorogenic GTP derivative bearing a BODIPY FL moiety, allowing for the identification of compounds that can inhibit this exchange (see FIG. 1A). In certain embodiments, the methods disclosed herein may exploit the reduction of intramolecular fluorescence quenching of the modified nucleotide upon its binding to the target protein (see, e.g., McEwen D P, Gee K R, Kang H C, Neubig R R. Fluorescent BODIPY-GTP analogs: real-time measurement of nucleotide binding to G proteins. Anal Biochem. 2001 Apr. 1; 291(1): 109-17).
The fluorometric assay formatted for 96-well microtiter plates has passed quality control based on the following criteria: i) S/B ratio of 4-fold and Z′-factor of 0.61; ii) linear correlation between signal intensity and ARNO concentration (see FIG. 1C); iii) sufficiently reproducible inhibitory effects of the reference inhibitor GDP for assay durations up to at least 1 hour (see FIG. 1D); and iv) lack of apparent fluorescence quenchers among 400 randomly selected compounds. The assay is amenable to automation with a throughput of approximately 5,000 data points per 8 hours.

Where [1] appears, read: 20 nM Arf6 assay, read-out: IC50 (μM) 20 nM Arf6.
The mark [2] stands for this setting: 200 nM Arf6 assay, read-out: IC50 (μM) 200 nM Arf6.

Sequence of Arf6 (P62330 14-175): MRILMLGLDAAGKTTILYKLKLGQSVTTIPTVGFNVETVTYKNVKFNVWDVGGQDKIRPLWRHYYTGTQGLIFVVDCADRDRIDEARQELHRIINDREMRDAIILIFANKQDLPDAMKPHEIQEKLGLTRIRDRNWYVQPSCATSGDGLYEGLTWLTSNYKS

A word on the IC50: it is the point on the concentration scale where inhibition reaches its midpoint. As to `O=c1cc(-c2ccc([N+](=O)[O-])cc2)[nH]c2c(-c3ccc(Cl)c(Cl)c3)c(C3CC3)nn12` [Compound 22], under setting [1], the IC50 turned out to be 1.2 µM.
With `CC(C)CC(=O)Nc1cccc(-c2cc(=O)n3nc(C(F)(F)F)c(-c4ccc(Cl)cc4)c3[nH]2)c1` [Compound 50], the IC50 under setting [1] stood at 2.5 µM.
For `O=c1cc(-c2ccc([N+](=O)[O-])cc2)[nH]c2c(-c3ccccc3)c(C(F)(F)F)nn12` [Compound 72], the IC50 under setting [1] amounted to 4.2 µM and the concentration for half-maximal inhibition (IC50) under setting [2] stood at 3.8 µM.
For the compound `Cc1nn2c(=O)cc(-c3ccc([N+](=O)[O-])cc3)[nH]c2c1-c1cccc(Cl)c1Cl` [Compound 57], under setting [1], the IC50 worked out at 3.2 µM.
Take `CCC(=O)Nc1cccc(-c2cc(=O)n3nc(C(F)(F)F)c(-c4ccc(Cl)cc4)c3[nH]2)c1` [Compound 61]: the IC50 under setting [1] was determined as 3.3 µM.
For `O=c1cc(-c2ccc([N+](=O)[O-])cc2)[nH]c2c(-c3cccc4ccccc34)c(Cc3ccccc3)nn12` [Compound 20], the IC50 under setting [1] was found to be 1.1 µM.
Take `CSc1nnc2c(n1)OC(c1cc(O)ccc1[N+](=O)[O-])Nc1ccccc1-2` (stereo not drawn) [Compound 137]: the IC50 under setting [1] was found to be 17 µM.
Still for that read-out and setting: then `CC(C)(C)c1nn2c(=O)cc(-c3cccnc3)[nH]c2c1-c1ccc(Cl)cc1` [Compound 84], with 6.4 µM; and `O=c1cc(-c2cccc([N+](=O)[O-])c2)[nH]c2c(-c3ccc(Cl)cc3)c(C(F)(F)F)nn12` [Compound 21], with 1.2 µM; and `CC(c1ccccc1)c1cc(=O)n2nc(C(F)(F)F)c(-c3ccc(Cl)cc3)c2[nH]1` (stereo not drawn) [Compound 45], with 2.3 µM.
In the case of `COC(=O)c1ccc(-c2cc(=O)n3nc(C4CC4)c(-c4ccc(Cl)cc4)c3[nH]2)cc1` [Compound 71], the concentration for half-maximal inhibition (IC50) under setting [1] turned out to be 4.1 µM.
Take `CSc1ccc(Cc2nn3c(=O)cc(-c4ccc([N+](=O)[O-])cc4)[nH]c3c2-c2ccc(Cl)cc2)cc1` [Compound 54]: the IC50 under setting [1] turned out to be 3 µM.
Regarding `O=c1c(Cl)c(-c2ccc([N+](=O)[O-])cc2)[nH]c2c(-c3ccc(Cl)cc3)c(C(F)(F)F)nn12` [Compound 10], under setting [1], the IC50 came out at 0.88 µM.
Turning to `O=c1cc(-c2ccc([N+](=O)[O-])cc2)[nH]c2c(-c3ccc(Cl)c(Cl)c3)c(C3CC3)nn12` [Compound 27], the 50% inhibitory concentration (IC50) under setting [1] worked out at 1.4 µM.
Regarding `O=c1cc(-c2ccccc2)[nH]c2c(-c3ccc(Cl)cc3)c(Cc3ccccc3)nn12` [Compound 29], the concentration for half-maximal inhibition (IC50) is 1.5 µM under setting [1] and 3.3 µM under setting [2].
Consider `Cc1cccc(N2C(=O)/C(=C/c3cc([N+](=O)[O-])cc(Br)c3O)SC2=S)c1` [Compound 115], for which the half-inhibitory concentration (IC50) under setting [2] was determined as 1.1 µM.
As to `O=c1cc(-c2ccc([N+](=O)[O-])cc2)[nH]c2c(-c3ccc(Cl)cc3)c(CN3CCOCC3)nn12` [Compound 80], under setting [1], the concentration for half-maximal inhibition (IC50) stood at 5.9 µM.
For the compound `Nc1cccc(-c2cc(=O)n3nc(C(F)(F)F)c(-c4ccc(Cl)cc4)c3[nH]2)c1` [Compound 88], under setting [1], the IC50 came out at 7 µM.
In the case of `O=c1[nH]c(CSc2ncnc3sccc23)nc2ccsc12` [Compound 138], under setting [1], the concentration for half-maximal inhibition (IC50) came out at 17 µM.
For `O=c1cc(-c2ccc([N+](=O)[O-])cc2)[nH]c2c(-c3ccc(Cl)cc3)c(C3CCOCC3)nn12` [Compound 77], under setting [1], the IC50 was determined as 5.1 µM.
Consider `O=C(O)c1ccc(-c2cc(=O)n3nc(C4CC4)c(-c4ccc(Cl)cc4)c3[nH]2)cc1` [Compound 107], for which the IC50 under setting [1] came out at 16 µM.
Still for that read-out and setting: in the case of `CC(C)(C)c1nn2c(=O)cc(-c3cccc(S(C)(=O)=O)c3)[nH]c2c1-c1ccc(Cl)cc1` [Compound 87] it was 6.7 µM.
Take `O=c1cc(-c2ccccc2)[nH]c2c(-c3ccccc3)c(Cc3ccccc3)nn12` [Compound 95]: the IC50 under setting [2] was 9.4 µM.
As to `COc1ccc(C(=O)Nc2cccc(/C=C3\C(=O)NC(=O)c4ccccc43)c2)cc1` [Compound 125], under setting [1], the IC50 worked out at 6.5 µM.
On to `CCCc1cc(=O)[nH]c(SCc2cc(=O)n3cc(Br)ccc3n2)n1` [Compound 132], for which, under setting [1], the IC50 came out at 30 µM.
As to `COCC(=O)Nc1ccc(-c2cc(=O)n3nc(C(F)(F)F)c(-c4ccc(Cl)cc4)c3[nH]2)cc1` [Compound 75], the IC50 under setting [1] was found to be 4.4 µM.
Turning to `Cc1nn2c(=O)cc(-c3ccc(F)cc3)[nH]c2c1-c1ccc(Cl)cc1` [Compound 93], the half-inhibitory concentration (IC50) under setting [1] worked out at 8.2 µM.
Turning to `CCC(=O)Nc1ccc(-c2cc(=O)n3nc(C(F)(F)F)c(-c4ccc(Cl)cc4)c3[nH]2)cc1` [Compound 16], the IC50 under setting [1] is 1 µM.
On to `O=c1cc(-c2ccc([N+](=O)[O-])cc2)[nH]c2c(-c3ccc(Cl)c(C(F)(F)F)c3)c(C(F)(F)F)nn12` [Compound 8], for which, under setting [1], the IC50 amounted to 0.67 µM.
Take `Cc1nn2c(=O)cc(-c3ccc([N+](=O)[O-])cc3)[nH]c2c1-c1ccc(OC(F)(F)F)cc1` [Compound 101]: the 50% inhibitory concentration (IC50) under setting [1] worked out at 13 µM.
For the compound `N#Cc1ccc(-c2cc(=O)n3nc(C(F)(F)F)c(-c4ccc(Cl)cc4)c3[nH]2)cc1` [Compound 40], the concentration for half-maximal inhibition (IC50) under setting [1] amounted to 1.9 µM.
For `Cc1nn2c(=O)cc(-c3ccc(NS(=O)(=O)Cc4ccccc4)cc3)[nH]c2c1-c1ccc(Cl)cc1` [Compound 68], the IC50 under setting [1] came out at 3.8 µM.
Take `O=c1c(Cl)c(-c2ccccc2)[nH]c2c(-c3ccc(Cl)cc3)c(C(F)(F)F)nn12` [Compound 13]: the IC50 under setting [1] amounted to 0.98 µM.
As for `COc1ccc(-c2cc(=O)n3nc(Cc4ccccc4)c(-c4ccc(Cl)cc4)c3[nH]2)cc1` [Compound 83], the IC50 under setting [2] came to 6.2 µM.
`COc1ccc(-c2cccc(-c3cc(=O)n4nc(C(F)(F)F)c(-c5ccc(Cl)cc5)c4[nH]3)c2)cn1` [Compound 31]: the 50% inhibitory concentration (IC50) under setting [1] came to 1.5 µM.
Regarding `COc1ccc(Cc2nn3c(=O)cc(-c4ccc([N+](=O)[O-])cc4)[nH]c3c2-c2ccccc2)cc1` [Compound 64], the IC50 under setting [2] was found to be 3.6 µM.
Consider `O=C(COC(=O)c1cc2ccccc2[nH]1)NCCSc1ccc(Cl)cc1` [Compound 139], for which the IC50 under setting [1] was 19 µM.
For the compound `O=c1cc(-c2ccc([N+](=O)[O-])cc2)[nH]c2c(-c3ccc(Cl)cc3)c(CO)nn12` [Compound 90], the IC50 under setting [1] worked out at 7.8 µM.
For the compound `O=c1cc(-c2ccc([N+](=O)[O-])cc2)[nH]c2c(-c3ccccc3)c(Cc3ccccc3)nn12` [Compound 59], under setting [2], the 50% inhibitory concentration (IC50) turned out to be 3.2 µM.
Turning to `O=c1cc(-c2ccc([N+](=O)[O-])cc2)[nH]c2c(-c3ccc(Cl)cc3)c(CC3CCOCC3)nn12` [Compound 63], under setting [1], the IC50 was determined as 3.6 µM.
For `O=C(Nc1ccc(C2=Nc3c(-c4ccc(Cl)cc4)c(C(F)(F)F)nn3C(=O)C2)cc1)c1ccccc1` [Compound 3], the IC50 under setting [1] amounted to 0.5 µM.
The same measure, in the same setting: then `O=c1cc(-c2cccc(Oc3cc(F)cc(F)c3)c2)[nH]c2c(-c3ccc(Cl)c(Cl)c3)c(C(F)(F)F)nn12` [Compound 2], with 0.33 µM.
On to `CC(C)(C)c1ccc(S(=O)(=O)Nc2ccc(O)c3ccccc23)cc1` [Compound 126], for which the IC50 under setting [2] was 6.7 µM.
For `CC(C)(C)c1nn2c(=O)cc(-c3cccc(C(N)=O)c3)[nH]c2c1-c1ccc(Cl)cc1` [Compound 85], the IC50 under setting [1] stood at 6.6 µM.
For the compound `N#Cc1cccc(-c2cc(=O)n3nc(C4CC4)c(-c4ccc(Cl)cc4)c3[nH]2)c1` [Compound 79], the half-maximal inhibitory concentration (IC50) under setting [1] worked out at 5.5 µM.
Turning to `O=c1cc(-c2ccc([N+](=O)[O-])cc2O)[nH]c2c(-c3ccc(Cl)cc3)c(Cc3ccccc3)nn12` [Compound 37], the IC50 under setting [2] worked out at 1.7 µM.
As for `O=C(Nc1cc(Cl)c(-c2cccc3cccnc23)c(Cl)c1)c1cc(Cl)cc(Br)c1O` [Compound 119], the IC50 under setting [1] turned out to be 2.1 µM.
On to `Cc1nn2c(=O)cc(-c3ccc(NC(=O)NCc4ccccc4)cc3)[nH]c2c1-c1ccc(Cl)cc1` [Compound 42], for which the half-maximal inhibitory concentration (IC50) under setting [1] is 2.1 µM.
For `CCNC(=O)Nc1ccc(-c2cc(=O)n3nc(C)c(-c4ccc(Cl)cc4)c3[nH]2)cc1` [Compound 97], under setting [1], the IC50 amounted to 11 µM.
On to `Cc1ccc(C(=O)OCc2cc(=O)n3cc(Br)ccc3n2)cn1` [Compound 130], for which, under setting [1], the IC50 came to 9.9 µM.
As usually defined, the inhibition is the share of the control response that was lost under treatment. For `c1nc(C2CCCNC2)cc(N2C[C@@H]3C[C@@H]4C[C@H](C3)N[C@@H]2C4)n1` (stereo partly drawn) [Compound 143], the inhibition at 10 µM (20 nM assay, 10 μM concentration) is approximately 31%.
Regarding `CCS(=O)(=O)Nc1ccc(-c2cc(=O)n3nc(C)c(-c4ccc(Cl)cc4)c3[nH]2)cc1` [Compound 96], the half-maximal inhibitory concentration (IC50) under setting [1] was found to be 10 µM.
For the compound `O=c1cc(-c2ccc(-c3cccnc3)cc2)[nH]c2c(-c3ccc(Cl)cc3)c(C(F)(F)F)nn12` [Compound 17], under setting [1], the IC50 came to 1.1 µM.
On to `Cc1nn2c(=O)cc(-c3ccc([N+](=O)[O-])cc3)[nH]c2c1-c1cc(Cl)cc(Cl)c1` [Compound 43], for which the IC50 under setting [1] was 2.1 µM.
Regarding `O=c1cc(-c2ccc([N+](=O)[O-])cc2)[nH]c2c(-c3ccc(Cl)cc3)cnn12` [Compound 60], the IC50 under setting [2] was 3.2 µM.
Take `O=c1cc(-c2ccc([N+](=O)[O-])cc2)[nH]c2c(-c3ccc(Cl)cc3)c(C3CC3)nn12` [Compound 104]: under setting [1], the IC50 was 14 µM.
Regarding `Cc1nn2c(=O)cc(-c3ccc([N+](=O)[O-])cc3)[nH]c2c1-c1cccc2ccccc12` [Compound 51], the half-inhibitory concentration (IC50) is 2.7 µM under setting [1] and 4.9 µM under setting [2].
